Test results: US6407142B1, “Use of stilbene derivatives substituted in position 3 as deodorant active agents in cosmetic compositions” (L'Oreal S.A., priority 1999, dated 2002)
Values after ≈ are worked out from the molar mass of the structure shown. Like-named read-outs stand apart in the source and are kept apart here.

How the values were obtained:
[1] = In vitro test of inhibition of the evolution of odors on natural sweat (olfactory evaluation by jury of experts); set-up: species or system human; details: for average % of reduction in the unpleasantness of the odor (T18 h, T24 h) / average % of reduction in the odor intensity (T18 h, T24 h): 37° C.; for average % of reduction in the unpleasantness of the odor (T18 h, T24 h): hedonistic grade relative to control sweat; for average % of reduction in the odor intensity (T18 h, T24 h): relative to control sweat without deodorant agent; for deodorant efficacy (reduction in the intensity and unpleasantness of the odor), in words: natural sweat, for at least 24 h
Protocol: A test of inhibition of the evolution of odors was carried out on natural sweat. This test is carried out by adding the deodorant agent to fresh sweat, and then in carrying out an olfactory evaluation by means of a jury of experts after incubation at 37° C. for 18 hours and 24 hours. Thus, underarm sweat was collected in a sauna from several human models and combined to form a sample of sweat. In order to obtain the characteristic nauseating odor of sweat, before introducing the active substance, this sample of sweat was incubated for 18 hours at a temperature of 37° C. […] The active substance was then introduced into each of the flasks to be tested.
1) After incubation for 18 hours, the odor of each flask was evaluated.
The odor was evaluated on the basis of 2 criteria:
(a)—overall intensity (grading from 0 to 4):
(b)—the hedonistic assessment (grading from 0 to 6):
2) The flasks were reincubated in an oven at 37° C. for 6 h, the total desired incubation time being 24 h. Evaluation of the odor of each flask was then repeated as before.

Propionibacterium acnes = experiment: Microbiostatic activity (MIC) by dilutions in agar medium; type: cell-based; details: Cutibacterium acnes
Protocol: (§1) Each of the 3 compounds was presented in the form of an ethanolic solution. 100 μl of the ethanolic solution were added to 1.9 ml of agar culture heated beyond the melting point to 45° C. (medium chosen as a function of the nutrient requirements of the test strain). After stirring with a Vortex machine, successive dilutions, in geometrical progression by a factor of 2, of the solution obtained were carried out using agar culture medium heated beyond its melting point to 45° C. 1 ml of each dilution was introduced into the wells of a microplate (flask, 24 wells). Four μl of microbial suspension were placed at the surface of the agar medium. Two control wells were also prepared: 100 μl H2O+1.9 ml of culture medium (growth control), […] ethanol+1.9 ml of culture medium (control of non-toxicity of the ethanol diluted to 1/20).
(§2) After incubation under conditions (temperature, atmosphere and duration) dependent on the test strain, the minimum inhibitory concentration (MIC) was given by the lowest concentration of product which inhibited the microbial growth. The results, shown below, are expressed in μg/ml.
(§3) For the control cupules (H2O or ethanol), the observation of microbial growth made it possible to exclude the presence of a placebo effect.

Aspergillus niger = experiment: as above; type: cell-based
Protocol: as §1, §2, §3

Staphylococcus aureus = experiment: as above; type: cell-based
Protocol: as §1, §2, §3

Pityrosporum ovale = experiment: as above; type: cell-based; details: Malassezia furfur
Protocol: as §1, §2, §3

Staphylococcus epidermis = experiment: as above; type: cell-based
Protocol: as §1, §2, §3

Corynebacterium xerosis = experiment: as above; type: cell-based; details: for MIC: Corynebacterium xerosis
Protocol: as §1, §2, §3

[2] = cited from earlier work
[3] = Propionibacterium acnes, agar dilution, read-out: MIC
[4] = Pityrosporum ovale, agar dilution, read-out: MIC
[5] = Staphylococcus epidermis, agar dilution, read-out: MIC

MIC (Propionibacterium acnes; [3]) [µg/mL] | MIC (Aspergillus niger; agar dilution, read-out: MIC) [µg/mL] | MIC (Staphylococcus aureus; agar dilution, read-out: MIC) [µg/mL] | MIC (Pityrosporum ovale; [4]) [µg/mL] | MIC (Staphylococcus epidermis; [5]) [µg/mL] | MIC (Corynebacterium xerosis; agar dilution, read-out: MIC) [µg/mL] | Structure (SMILES) | average % of reduction in the unpleasantness of the odor (T18 h, T24 h) ([1]; 1 mg/ml of sweat) [%] | average % of reduction in the odor intensity (T18 h, T24 h) ([1]; 1 mg/ml of sweat) [%] | average % of reduction in the unpleasantness of the odor (T18 h, T24 h) ([1]; 2 mg/ml of sweat) [%] | average % of reduction in the odor intensity (T18 h, T24 h) ([1]; 2 mg/ml of sweat) [%] | deodorant efficacy (reduction in the intensity and unpleasantness of the odor), in words [1] | selectivity of bactericidal activity, in words (Corynebacterium xerosis; less active than Resveratrol on all strains except Corynebacterium xerosis) | solubility in water, in words [2] | MIC (Propionibacterium acnes) [µg/mL] | MIC (Aspergillus niger) [µg/mL] | MIC (Staphylococcus aureus) [µg/mL] | MIC (Pityrosporum ovale) [µg/mL] | MIC (Staphylococcus epidermis; Staphylococcus) [µg/mL] | MIC (Corynebacterium xerosis) [µg/mL]
– | – | – | – | – | – | Oc1ccc(C=Cc2ccccc2)cc1 [4-Hydroxystilbene, 4-hydroxystilbene] | −3 | −18 | −10 | −21 | highly insufficient efficacy | – | – | – | – | – | – | – | –
200 (≈ 942 µM) | 400 (≈ 1880 µM) | 200 (≈ 942 µM) | > 400 | 400 (≈ 1880 µM) | 6 (≈ 28.3 µM) | Oc1cc(O)cc(C=Cc2ccccc2)c1 [Pinosylvine, 3,5-dihydroxystilbene] | −33 | −77 | −40 | −89 | very large reduction | exerted selectively | – | – | – | – | – | – | –
29 (≈ 127 µM) | > 115 | 72 (≈ 315 µM) | > 115 | 72 (≈ 315 µM) | 14 (≈ 61.3 µM) | Oc1ccc(/C=C/c2cc(O)cc(O)c2)cc1 [Resveratrol, 3,5,4′-stilbene] | – | – | – | – | – | – | – | – | – | – | – | – | –
– | – | – | – | – | – | Oc1cc(Cl)ccc1Oc1ccc(Cl)cc1Cl [Triclosan, 2,4,4′-trichloro-2′-hydroxydiphenyl ether] | −26 | −64 | −26 | −64 | – | – | insoluble | 2.3 (≈ 7.94 µM) | 18.1 (≈ 62.5 µM) | 0.1 (≈ 0.345 µM) | > 144 | 2.3 (≈ 7.94 µM) | 2.3 (≈ 7.94 µM)
